Results taken from publication PMC4784888, “Activity Based High-Throughput Screening for Novel O-GlcNAc Transferase Substrates Using a Dynamic Peptide Microarray” (PLoS ONE, 2016).
Where a name gives a salt, the structure may show the parent alone.

System: purified m-OGT
Assay: Km of UDP-GlcNAc in RBL-2 peptide O-GlcNAcylation on microarray
Assay type: biochemical, human
Conditions: fixed saturating RBL-2_410–422 peptide, purified m-OGT (0.2 μg/μL), UDP-GlcNAc 0–2 mM, Michaelis-Menten fit; read-out: Km of UDP-GlcNAc donor
Method: One step OGT purification was performed using His60 Ni Gravity Flow Columns (Clontech) according to the manufacturer’s instructions. Briefly, the nickel column was equilibrated with a buffer containing 50 mM sodium phosphate, 300 sodium chloride, 20 mM imidazole, and pH 7.4, followed by incubation with cell lysate containing His tag OGT for 1h at 4°C. After washing several times using buffer containing 50 mM sodium phosphate, 300 sodium chloride, 40 mM imidazole, and pH 7.4, the recombinant OGT was eluted using elution buffer containing 50 mM sodium phosphate, 300 mM sodium chloride, 300 mM imidazole, and pH 7.4. […]
Peptide O-GlcNAcylation was assessed using PamChip 4 microarray chips with a PamStation 12 instrument (Pamgene international, The Netherlands). […] O-GlcNAcylation of each peptide was detected by a fluorescent signal which was produced by an FITC conjugated antibody bound to the O-GlcNAc moiety on the peptide.
Image analysis was performed using BioNavigator 6 software (Pamgene international, The Netherlands). Briefly, each image was quantified by automated array grid finding and subsequent quantification of signal and local background for each individual spot. In this work, the signal median-minus-background value was used as the quantitative parameter for the O-GlcNAcylation of the peptide. […]

- Km: 24 µM
Compound: CC(=O)N[C@H]1[C@@H](OP(=O)(O)OP(=O)(O)OC[C@H]2O[C@@H](n3ccc(=O)[nH]c3=O)[C@H](O)[C@@H]2O)O[C@H](CO)[C@@H](O)[C@@H]1O [UDP-GlcNAc, Uridine 5′-diphospho-N-acetylglucosamine sodium salt]
